The source of these data is patent publication US8648037B2, “Macrocyclic proline derived HCV serine protease inhibitors” (priority 2010, dated 2014).

For experiment [1], the system named is HCV genotype 1b Con1 stable subgenomic replicon. As to the kind of experiment: genotype 1b Con1 stable replicon assay (luciferase reporter). The class given is cell-based, hepatitis C virus (HCV). The settings on record: Hepatitis C virus. On the technique in general: In antiviral work, replicon cells carry a viral genome segment that copies itself.
Experiment [2] relates to HCV genotype 1a D168V variant transient replicon. As to the kind of experiment: genotype 1a D168V transient replicon assay. Type of experiment: cell-based, hepatitis C virus (HCV). Particulars: Hepatitis C virus.
Experiment [3] has as its system HCV genotype 1a wild-type transient replicon. Nature of the experiment: genotype 1a wild-type transient replicon assay. Type of experiment: cell-based, hepatitis C virus (HCV). The settings on record: Hepatitis C virus.
Experiment [4] relates to HCV genotype 3a A166T variant transient replicon. As to the kind of experiment: genotype 3a A166T transient replicon assay. The class given is cell-based, hepatitis C virus (HCV). Particulars: Hepatitis C virus.
The subject of experiment [5] is HCV genotype 3a wild-type stable replicon (chimeric, NS3 gene from genotype 3a isolates). As to the kind of experiment: genotype 3a wild-type stable replicon assay. The class given is cell-based, hepatitis C virus (HCV). The settings on record: Hepatitis C virus.
Experiment [6] has as its system HCV genotype 1b wild-type transient replicon. As to the kind of experiment: genotype 1b wild-type transient replicon assay. Type of experiment: cell-based, hepatitis C virus (HCV). Particulars: Hepatitis C virus.
Experiment [7] concerns HCV genotype 1b R155K variant transient replicon. Nature of the experiment: genotype 1b R155K transient replicon assay. Type of experiment: cell-based, hepatitis C virus (HCV). Particulars: Hepatitis C virus.
The test system of experiment [8] is HCV genotype 1b D168V variant transient replicon. As to the kind of experiment: genotype 1b D168V transient replicon assay. The class given is cell-based, hepatitis C virus (HCV). Particulars: Hepatitis C virus.
Experiment [9] has as its system HCV genotype 1a D168E variant transient replicon. As to the kind of experiment: genotype 1a D168E transient replicon assay. Type of experiment: cell-based, hepatitis C virus (HCV). Particulars: Hepatitis C virus.
For experiment [10], the system named is HCV genotype 1a R155K variant transient replicon. Nature of the experiment: genotype 1a R155K transient replicon assay. Type of experiment: cell-based, hepatitis C virus (HCV). Particulars: Hepatitis C virus.
In experiment [11] the test system is HCV genotype 1a (1a-H77) stable subgenomic replicon. Nature of the experiment: genotype 1a Huh-7 stable replicon assay (luciferase reporter). Type of experiment: cell-based, hepatitis C virus (HCV). Particulars: Hepatitis C virus, 5% FBS.
The subject of experiment [12] is HCV genotype 3a Q168R variant transient replicon. Nature of the experiment: genotype 3a Q168R transient replicon assay. The class given is cell-based, hepatitis C virus (HCV). Particulars: Hepatitis C virus.
In experiment [13] the test system is HCV genotype 3a wild-type transient replicon. As to the kind of experiment: genotype 3a wild-type transient replicon assay. Particulars: Hepatitis C virus. The class given is cell-based, hepatitis C virus (HCV).
The subject of another experiment is HCV R155K variants. Particulars: Bartels 2008, Lu 2004, Zhou 2007; cited from earlier work.
The next experiment relates to HCV. The settings on record: after R155K (danoprevir) or R155K/D168V (vaniprevir) variants detected; cited from earlier work.
Experiment [14] relates to HCV genotype 3a S138T variant transient replicon. Nature of the experiment: genotype 3a S138T transient replicon assay. The class given is cell-based, hepatitis C virus (HCV). Particulars: Hepatitis C virus.

Broadly, the EC50 is the concentration that produces a half-maximal response. For `C=C[C@@H]1C[C@]1(NC(=O)[C@@H]1C[C@@H]2CN1C(=O)[C@H](C(C)(C)C)NC(=O)O[C@@H]1CCC[C@H]1OC/C=C/C(F)(F)c1nc3ccccc3nc1O2)C(=O)NS(=O)(=O)C1(C)CC1` [Example 5], the EC50 in [1] was 1 to 10 nM; in [2], less than 1 nM; in experiment [3], less than 0.1 nM; in [4], less than 100 nM; in experiment [5], less than 10 nM; in experiment [6] it was less than 1 nM. Further, the EC50 was less than 1 nM in [7]; less than 1 nM in experiment [8]; less than 1 nM in experiment [9]; less than 0.1 nM in experiment [10]; less than 1 nM in experiment [11]; less than 100 nM in [12]. For the same compound, the EC50 in [13] is less than 10 nM.

Regarding `CC(C)(C)OC(=O)N[C@H]1CCCCC/C=C\[C@@H]2C[C@@]2(C(=O)NS(=O)(=O)C2CC2)NC(=O)[C@@H]2C[C@@H](OC(=O)N3Cc4cccc(F)c4C3)CN2C1=O` [danoprevir], in the experiment on HCV R155K variants, the “resistance conferred by R155K variants” value is “high-level resistance”. Moreover, the “viral load in patients receiving treatment” value in the experiment on HCV is listed as “Viral load rebound”.

Take `CC[C@@H]1C[C@]1(NC(=O)[C@@H]1C[C@@H]2CN1C(=O)[C@H](C(C)(C)C)NC(=O)O[C@@H]1CCC[C@H]1OC/C=C/C(F)(F)c1nc3ccccc3nc1O2)C(=O)NS(=O)(=O)C1(C)CC1` [Example 8]: the EC50 was 1 to 10 nM in experiment [1]; 1 to 10 nM in experiment [2]; 100 to 1000 nM in [14]; 0.1 to 1 nM in experiment [3]; 100 to 500 nM in experiment [4]; less than 1 nM in experiment [6]. In addition, the EC50 was less than 1 nM in experiment [7]; 1 to 100 nM in [8]; less than 1 nM in experiment [9]; less than 0.1 nM in experiment [10]; less than 1 nM in experiment [11]; 100 to 1000 nM in [12]. The EC50 in experiment [13] is 10 to 100 nM.

For the compound `CC(C)(C)[C@@H]1NC(=O)O[C@@H]2CCC[C@H]2OC/C=C/C(F)(F)c2nc3ccccc3nc2O[C@@H]2C[C@@H](C(=O)N[C@]3(C(=O)NS(=O)(=O)C4(C)CC4)C[C@H]3C(F)F)N(C2)C1=O` [Example 6], the EC50 in experiment [1] is 1 to 10 nM; in experiment [2], less than 1 nM; in [14], less than 100 nM; in experiment [3], less than 0.1 nM; in experiment [4], less than 100 nM; in [5], less than 10 nM. Besides, the EC50 in experiment [6] is less than 1 nM; in experiment [7], less than 1 nM; in experiment [8], less than 1 nM; in experiment [9], less than 1 nM; in [10] it was less than 0.1 nM; in experiment [11], less than 1 nM. Also, the results for the EC50 in [12] and in [13] were less than 100 nM and less than 10 nM, respectively.

With `COc1ccc2c(O[C@@H]3C[C@H]4C(=O)N[C@]5(C(=O)O)C[C@H]5/C=C\CCCCC[C@H](NC(=O)OC5CCCC5)C(=O)N4C3)cc(-c3csc(NC(C)C)n3)nc2c1` [BILN 2061], the “resistance conferred by R155K variants” value with HCV R155K variants was “high-level resistance”.

Take `C=C[C@@H]1C[C@]1(NC(=O)[C@@H]1C[C@@H]2CN1C(=O)[C@H](C(C)(C)C)NC(=O)O[C@@H]1CCC[C@H]1OC/C=C/C(F)(F)c1nc3ccccc3nc1O2)C(=O)NS(=O)(=O)C1CC1` [Example 1]: the EC50 in experiment [1] is 1 to 10 nM; in experiment [2] it was 1 to 10 nM; in experiment [14], 100 to 1000 nM; in experiment [3] it was 0.1 to 1 nM; in experiment [4], 100 to 500 nM; in experiment [5], less than 10 nM. The EC50 was less than 1 nM in experiment [6]; less than 1 nM in experiment [7]; less than 1 nM in experiment [8]; less than 1 nM in experiment [9]; 0.1 to 1 nM in [10]; less than 1 nM in [11]. The EC50 in experiment [12] lay within 100 to 1000 nM; in experiment [13] it was 10 to 100 nM.

Take `CC(C)(C)[C@@H]1NC(=O)O[C@@H]2CCC[C@H]2OC/C=C/C(F)(F)c2nc3ccccc3nc2O[C@@H]2C[C@@H](C(=O)N[C@]3(C(=O)NS(=O)(=O)C4CC4)C[C@H]3C(F)F)N(C2)C1=O` [Example 2]: the EC50 is 1 to 10 nM in [1]; less than 1 nM in experiment [2]; 100 to 1000 nM in [14]; 0.1 to 1 nM in experiment [3]; less than 100 nM in [4]; less than 10 nM in [5]. Besides, the EC50 was less than 1 nM in experiment [6]; less than 1 nM in [7]; 1 to 100 nM in experiment [8]; less than 1 nM in experiment [9]; less than 0.1 nM in experiment [10]; 1 to 10 nM in experiment [11]. The EC50 is 100 to 1000 nM in experiment [12] and less than 10 nM in [13].

Consider `CC[C@@H]1C[C@]1(NC(=O)[C@@H]1C[C@@H]2CN1C(=O)[C@H](C(C)(C)C)NC(=O)O[C@@H]1CCC[C@H]1OC/C=C/C(F)(F)c1nc3ccccc3nc1O2)C(=O)NS(=O)(=O)C1CC1` [Example 4], for which the EC50 in experiment [1] was 1 to 10 nM; in experiment [2] it was 10 to 1000 nM; in experiment [14] it was 100 to 1000 nM; in [3], 0.1 to 1 nM; in experiment [4], 100 to 500 nM; in experiment [6], less than 1 nM. The EC50 is less than 1 nM in experiment [7]; 1 to 100 nM in experiment [8]; less than 1 nM in experiment [9]; 0.1 to 1 nM in experiment [10]; less than 1 nM in [11]; 100 to 1000 nM in [12]. The EC50 in experiment [13] is 10 to 100 nM.

Regarding `CC[C@@H]1C[C@]1(NC(=O)[C@@H]1C[C@@H]2CN1C(=O)[C@H](C(C)(C)C)NC(=O)OCC(C)(C)CCCCc1cccc3c1CN(C3)C(=O)O2)C(=O)NS(=O)(=O)C1CC1` [vaniprevir], in the experiment with HCV, the “viral load in patients receiving treatment” value is given as “viral load rebound”.
